Test results published in patent US20100261706A1, “SUBSTITUTED TETRACYCLIC 1H-INDENO [1,2-B]PYRIDINE-2(5H)-ONE ANALOGS THEREOF AND USES THEREOF” (INOTEK PHARMACEUTICALS CORPORATION, priority 2008, published 2010).
Structures can show the parent of a compound that is named as a salt.

biological target: T1, PARP (Mus musculus, UniProt P11103); test: PARP activity in cultured macrophages, whole-cell based assay (3H-NAD+ incorporation after hydrogen peroxide); settings: murine RAW macrophages, 1 hour pretreatment, hydrogen peroxide 0.5 mM
T1 construct: PARP Activity in Cultured Macrophages, Using a Whole-Cell Based Assay; endogenous in cells; host or cells: murine RAW macrophages (ATCC)
T1 sequence (P11103 whole entry): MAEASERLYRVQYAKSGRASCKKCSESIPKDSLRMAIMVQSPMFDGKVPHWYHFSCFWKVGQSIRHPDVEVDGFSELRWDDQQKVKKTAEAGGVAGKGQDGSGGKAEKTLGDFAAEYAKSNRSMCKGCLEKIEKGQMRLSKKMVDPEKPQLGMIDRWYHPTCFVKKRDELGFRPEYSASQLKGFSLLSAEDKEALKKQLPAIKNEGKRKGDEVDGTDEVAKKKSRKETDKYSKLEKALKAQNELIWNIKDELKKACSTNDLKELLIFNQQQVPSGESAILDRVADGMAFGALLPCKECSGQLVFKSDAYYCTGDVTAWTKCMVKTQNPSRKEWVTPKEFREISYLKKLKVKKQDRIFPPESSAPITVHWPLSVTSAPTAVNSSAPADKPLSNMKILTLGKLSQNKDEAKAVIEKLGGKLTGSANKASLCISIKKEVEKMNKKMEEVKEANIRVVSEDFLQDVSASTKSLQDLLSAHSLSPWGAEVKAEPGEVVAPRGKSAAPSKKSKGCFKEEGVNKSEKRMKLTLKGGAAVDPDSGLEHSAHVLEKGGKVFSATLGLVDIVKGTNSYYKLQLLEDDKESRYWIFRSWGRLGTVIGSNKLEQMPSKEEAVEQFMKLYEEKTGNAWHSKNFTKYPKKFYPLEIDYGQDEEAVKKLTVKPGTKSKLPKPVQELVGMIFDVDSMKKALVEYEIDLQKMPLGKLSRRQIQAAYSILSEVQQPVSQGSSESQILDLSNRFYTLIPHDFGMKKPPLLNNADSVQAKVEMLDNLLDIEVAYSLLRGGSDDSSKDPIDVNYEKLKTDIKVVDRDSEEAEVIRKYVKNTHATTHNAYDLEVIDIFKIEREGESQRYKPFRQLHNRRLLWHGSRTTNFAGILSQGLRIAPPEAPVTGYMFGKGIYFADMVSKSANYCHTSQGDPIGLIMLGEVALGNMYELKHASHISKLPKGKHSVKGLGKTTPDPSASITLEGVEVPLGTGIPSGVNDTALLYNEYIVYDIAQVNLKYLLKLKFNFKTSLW
Experimental: Effect of Tetracyclic 1H-indeno[1,2-b]pyridine-2(511)-one Analogs on PARP Activity in Cultured Macrophages, Using a Whole-Cell Based Assay
The murine RAW macrophages (ATCC, American Type Culture Collection, Manassas, Va.) were grown in […] (Invitrogen Life Technologies; Carlsbad, Calif.) medium supplemented with 10% heat-inactivated FBS, 2 mM L-glutamine, and 100 U/ml of penicillin and streptomycin. Cells, between passages 5 and 15, were seeded at a density of 250,000 cells/well in 12 well plates and allowed to grow 48 hours before use. Growth medium was changed on the day of use. Cells were treated with a tetracyclic 1H-indeno[1,2-b]pyridine-2(5H)-one analog diluted in a growth medium supplemented with 10% fetal bovine serum (FBS) for 1 hour prior to the addition of hydrogen peroxide (0.5 mM) for a further 25 minutes. For the measurement of PARP activity, media was removed and replaced with 0.5 ml of the assay buffer (56 mM HEPES-pH 7.5, 28 mM KCl, 28 mM NaCl, 2 mM MgCl2, 0.01% digitonin, and 0.5 μCi/ml of ^3H-NAD^+) for 20 minutes. After aspirating the assay buffer, cells were lysed and transferred to eppendorf tubes containing 250 μl of 50% ice-cold trichloroacetic acid (TCA), which were then placed at 4° C. for 4 hours. Samples were centrifuged at 10,000 g for 10 minutes and supernatant removed. The pellets were washed twice with 500 μl of ice-cold 5% w/v TCA. The pellets were then solubilized in 250 μl of NaOH (0.1 M) containing 2% SDS overnight at 37° C. and the PARP activity was then determined by measuring the radioactivity incorporated using a Wallac scintillation counter. The solubilized protein (250 μl) was mixed with 5 ml of scintillation fluid (ScintiSafe Plus, Fisher Scientific) before being counted for 3 minutes. EC50 values were determined from a dose-response curve.

| Structure (SMILES) | EC50 |
| --- | --- |
| COC(=O)c1ccc2c(c1)Cc1c-2[nH]c(=O)c2c1CCCC2 [Example 30, methyl 5-oxo-2,3,4,5,6,11-hexahydro-1H-indeno[1,2-c]isoquinoline-9-carboxylate] | 250 nM |
| O=c1[nH]c2c(c3c1CCCC3)Cc1cc(CO)ccc1-2 [Example 33, 9-(hydroxymethyl)-3,4,6,11-tetrahydro-1H-indeno[1,2-c]isoquinolin-5(2H)-one] | 95 nM |
| CCCN1CCN(Cc2ccc3c(c2)Cc2c-3[nH]c(=O)c3c2CCCC3)CC1 [Example 34, 9-((4-propylpiperazin-1-yl)methyl)-3,4,6,11-tetrahydro-M-indeno[1,2-c]isoquinolin-5(2H)-one] | 200 nM |
| COCCN1CCN(Cc2ccc3c(c2)Cc2c-3[nH]c(=O)c3c2CCCC3)CC1 [Example 35, 9-((4-(2-methoxyethyl)piperazin-1-yl)methyl)-3,4,6,11-tetrahydro-1H-indeno[1,2-c]isoquinolin-5(2H)-one] | 300 nM |
| O=c1[nH]c2c(c3c1CCCC3)Cc1cc(CN3CCOCC3)ccc1-2 [Example 37, 9-(morpholinomethyl)-3,4,6,1′-tetrahydro-4H-indeno[1,2-c]isoquinolin-5(2H)-one] | 300 nM |
| O=c1[nH]c2c(c3c1CCCC3)Cc1cc(CN3CCC(O)CC3)ccc1-2 [Example 38, 9-((4-hydroxypiperidin-1-yl)methyl)-3,4,6,11-tetrahydro-1H-indeno[1,2-c]isoquinolin-5(2H)-one] | 300 nM |
| O=c1[nH]c2c(c3c1CCCC3)Cc1cc(CN3CCCC3)ccc1-2 [Example 39, 9-(pyrrolidin-1-ylmethyl)-3,4,6,11-tetrahydro-1H-indeno[1,2-c]isoquinolin-5(2H)-one] | 100 nM |
| O=c1[nH]c2c(c3c1CCCC3)Cc1cc(CNC3CCCC3)ccc1-2 [Example 40, 9-((cyclopentylamino)methyl)-3,4,6,11-tetrahydro-1H-indeno[1,2-c]isoquinolin-5(2H)-one] | 60 nM |
| CCCCN1CCN(Cc2ccc3c(c2)Cc2c-3[nH]c(=O)c3c2CCCC3)CC1 [Example 44, 9-((4-butylpiperazin-1-yl)methyl)-3,4,6,11-tetrahydro-4H-indeno[1,2-c]isoquinolin-5(2H)-one] | 200 nM |
| CC(C)(N)c1cccc2c1Cc1c-2[nH]c(=O)c2c1CCCC2 [Example 46, 10-(2-aminopropan-2-yl)-3,4,6,11-tetrahydro-1H-indeno[1,2-c]isoquinolin-5(2H)-one] | 8 nM |
| O=c1[nH]c2c(c3ccsc13)Cc1c(CN3CCC(C(F)(F)F)CC3)cccc1-2 [Example 47, 9-((4-(trifluoromethyl)piperidin-1-yl)methyl)-5,10-dihydro-4H-indeno[1,2-b]thieno[3,2-d]pyridin-4-one] | 9 nM |
| O=c1[nH]c2c(c3sccc13)Cc1c(CN3CCC(C(F)(F)F)CC3)cccc1-2 [Example 54, 9-((4-(trifluoromethyl)piperidin-1-yl)methyl)-5,10-dihydro-4H-indeno[1,2-b]thieno[2,3-d]pyridin-4-one] | > 500 nM |
| O=c1[nH]c2c(c3ncccc13)Cc1c(CO)cccc1-2 [Example 57, 10-(hydroxymethyl)-6,11-dihydro-5H-indeno[1,2-h][1,6]naphthyridin-5-one] | 334 nM |
| COC(=O)c1cccc2c1Cc1c-2[nH]c(=O)c2c1CCCC2 [Example 63, methyl 5-oxo-2,3,4,5,6,11-hexahydro-1H-indeno[1,2-c]isoquinoline-10-carboxylate] | 100 nM |
| CCN(CC)Cc1ccc2c(c1)Cc1c-2[nH]c(=O)c2c1CCCC2 [Example 64, 9-((diethylamino)methyl)-3,4,6,11-tetrahydro-1H-indeno[1,2-c]isoquinolin-5(2H)-one] | 4.48 nM |
| O=c1[nH]c2c(c3c1CCCC3)Cc1cc(CN3CCC(F)(F)CC3)ccc1-2 [Example 65, 9-((4,4-difluoropiperidin-1-yl)methyl)-3,4,6,11-tetrahydro-1H-indeno[1,2-c]isoquinolin-5(2H)-one] | 748 nM |

More lines, now with the values ahead:

| EC50 | Structure (SMILES) |
| --- | --- |
| 1.5 nM | O=c1[nH]c2c(c3c1CCCC3)Cc1c(CN3CCCCC3)cccc1-2 [Example 4, 10-(piperidin-1-ylmethyl)-3,4,6,11-tetrahydro-1H-indeno[1,2-c]isoquinolin-5(2H)-one hydrochloride] |
| 7.8 nM | O=c1[nH]c2c(c3c1CCCC3)Cc1c(CN3CCCCCC3)cccc1-2 [Example 5, 10-(azepan-1-ylmethyl)-3,4,6,11-tetrahydro-1H-indeno[1,2-c]isoquinolin-5(2H)-one] |
| 8.46 nM | O=c1[nH]c2c(c3c1CCCC3)Cc1c(CN3CCCC3)cccc1-2 [Example 6, 10-(pyrrolidin-1-ylmethyl)-3,4,6,11-tetrahydro-1H-indeno[1,2-c]isoquinolin-5(2H)-one] |
| 8.5 nM | O=c1[nH]c2c(c3c1CCCC3)Cc1c(CN3CCCC3)cccc1-2 [Example 8, 10-(pyrrolidin-1-ylmethyl)-3,4,6,11-tetrahydro-1H-indeno[1,2-c]isoquinolin-5(2H)-one hydrochloride] |
| 37 nM | O=c1[nH]c2c(c3c1CCCC3)Cc1c(CN3CCCCCCC3)cccc1-2 [Example 10, 10-(azocan-1-ylmethyl)-3,4,6,11-tetrahydro-1H-indeno[1,2-c]isoquinolin-5(2H)-one] |
| 749 nM | O=c1[nH]c2c(c3c1CCCC3)Cc1c(CN3CCC(F)(F)CC3)cccc1-2 [Example 12, 10-((4,4-difluoropiperidin-1-yl)methyl)-3,4,6,11-tetrahydro-1H-indeno[1,2-c]isoquinolin-5(2H)-one] |
| 169 nM | O=c1[nH]c2c(c3c1CCCC3)Cc1c(CN3CCSC3)cccc1-2 [Example 13, 10-(thiazolidin-3-ylmethyl)-3,4,6,11-tetrahydro-1H-indeno[1,2-c]isoquinolin-5(2H)-one] |
| 12.7 nM | CCOC1CCN(Cc2cccc3c2Cc2c-3[nH]c(=O)c3c2CCCC3)CC1 [Example 14, 10-((4-ethoxypiperidin-1-yl)methyl)-3,4,6,11-tetrahydro-1H-indeno[1,2-c]isoquinolin-5(2H)-one mesylate] |
| 11.7 nM | O=c1[nH]c2c(c3c1CCCC3)Cc1c(CN3CC[C@H](F)C3)cccc1-2 [Example 15, (S)-10-((3-fluoropyrrolidin-1-yl)methyl)-3,4,6,11-tetrahydro-1H-indeno[1,2-c]isoquinolin-5(2H)-one] |
| 7.8 nM | O=c1[nH]c2c(c3c1CCCC3)Cc1c(CN3CCC(N4CCCCC4)CC3)cccc1-2 [Example 22, 10-(1,4′-bipiperidin-1′-ylmethyl)-3,4,6,11-tetrahydro-1H-indeno[1,2-c]isoquinolin-5(2H)-one dihydrochloride] |
| 16 nM | COCCNCc1cccc2c1Cc1c-2[nH]c(=O)c2c1CCCC2 [Example 27, 10-((2-methoxyethylamino)methyl)-3,4,6,11-tetrahydro-1H-indeno[1,2-c]isoquinolin-5(2H)-one] |
| 35 nM | CN(C)Cc1cccc2c1Cc1c-2[nH]c(=O)c2c1CCCC2 [Example 28] |
| 25 nM | O=c1[nH]c2c(c3c1CCCC3)Cc1c(CO)cccc1-2 [Example 29, 10-(hydroxymethyl)-3,4,6,11-tetrahydro-1H-indeno[1,2-c]isoquinolin-5(2H)-one] |
| 80 nM | O=c1[nH]c2c(c3c1CCCC3)Cc1c(CN3CCNCC3)cccc1-2 [Example 31, 10-(piperazin-1-ylmethyl)-3,4,6,11-tetrahydro-1H-indeno[1,2-c]isoquinolin-5(2H)-one] |
| 37.5 nM | O=c1[nH]c2c(c3c1CCCC3)Cc1cc(CN3CCC(F)CC3)ccc1-2 [Example 66, 9-((4-fluoropiperidin-1-yl)methyl)-3,4,6,11-tetrahydro-1H-indeno[1,2-c]isoquinolin-5(2H)-one] |

biological target: T2, PARP-1 enzyme (Homo sapiens, UniProt P09874); test: Purified PARP-1 enzyme inhibition assay (Trevigen kit, 96 well ELISA plates); assay type: biochemical; settings: not given
T2 construct: purchased Trevigen, Gaithersburg, Md
T2 sequence (P09874 whole entry): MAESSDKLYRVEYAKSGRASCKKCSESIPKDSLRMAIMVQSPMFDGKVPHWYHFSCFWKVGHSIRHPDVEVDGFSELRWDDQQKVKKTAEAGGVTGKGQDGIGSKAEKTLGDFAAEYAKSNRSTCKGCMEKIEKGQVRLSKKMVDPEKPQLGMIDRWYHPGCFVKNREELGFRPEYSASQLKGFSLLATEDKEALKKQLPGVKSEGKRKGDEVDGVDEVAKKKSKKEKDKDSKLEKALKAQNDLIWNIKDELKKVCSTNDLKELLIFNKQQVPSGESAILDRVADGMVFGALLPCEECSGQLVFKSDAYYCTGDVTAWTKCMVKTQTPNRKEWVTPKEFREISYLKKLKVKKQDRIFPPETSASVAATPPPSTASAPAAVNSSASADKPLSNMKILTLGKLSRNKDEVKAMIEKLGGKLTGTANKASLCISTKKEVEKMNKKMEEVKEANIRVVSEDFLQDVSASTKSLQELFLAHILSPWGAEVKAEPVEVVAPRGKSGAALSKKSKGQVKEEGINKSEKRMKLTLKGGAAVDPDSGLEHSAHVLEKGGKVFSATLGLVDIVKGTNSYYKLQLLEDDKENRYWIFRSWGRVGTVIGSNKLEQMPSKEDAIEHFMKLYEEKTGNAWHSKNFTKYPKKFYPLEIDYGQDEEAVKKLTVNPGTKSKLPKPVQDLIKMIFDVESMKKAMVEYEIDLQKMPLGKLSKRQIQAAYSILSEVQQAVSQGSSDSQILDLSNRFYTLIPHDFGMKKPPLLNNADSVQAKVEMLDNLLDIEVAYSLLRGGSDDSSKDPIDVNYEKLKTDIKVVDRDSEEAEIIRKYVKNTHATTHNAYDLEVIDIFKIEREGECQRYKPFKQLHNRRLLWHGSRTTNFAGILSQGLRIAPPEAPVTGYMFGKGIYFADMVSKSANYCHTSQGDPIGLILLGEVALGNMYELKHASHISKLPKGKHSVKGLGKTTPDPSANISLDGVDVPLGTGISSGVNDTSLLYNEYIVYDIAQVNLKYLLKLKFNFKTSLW
Experimental: Effect of Tetracyclic 1H-indeno[1,2-b]pyridine-2(5H)-one analogs on PARP Activity in purified PARP-1 enzyme assay
The potency of inhibition on purified PARP-1 enzyme was subsequently determined for selected compounds, and the potency was compared with INO-1001. The assay was performed in 96 well ELISA plates according to instructions provided with a commercially available PARP-1 inhibition assay kit (Trevigen, Gaithersburg, Md.). Briefly, wells were coated with 1 mg/ml histone (50 μl/well) at 4° C. overnight. Plates were then washed four times with PBS and then blocked by adding 50 μl Strep-Diluent (supplied with the kit). After incubation (1 h, 25° C.), the plates were washed four times with PBS. Appropriate dilutions of compound was combined with 2×PARP cocktail (1.95 mM NAD^+, 50 μM biotinylated NAD^+ in 50 mM TRIS pH 8.0, 25 mM MgCl2) and high specific activity PARP enzyme (both were supplied with the kit) in a volume of 50 μl. The reaction was allowed to proceed for 30 min at room temperature. After 4 washes in PBS, incorporated biotin was detected by peroxidase-conjugated streptavidin (1:500 dilution) and TACS Sapphire substrate. EC50 and IC50 values were determined from a dose-response curve.

| IC50 | Structure (SMILES) |
| --- | --- |
| 11.3 nM | O=c1[nH]c2c(c3c1CCCC3)Cc1c(CN3CCC(O)CC3)cccc1-2 [Example 3, 10-((4-hydroxypiperidin-1-yl)methyl)-3,4,6,11-tetrahydro-1H-indeno[1,2-c]isoquinolin-5(2H)-one hydrochloride] |
